Test results taken from publication PMC3968781 (Journal of the American Chemical Society, 2014).
Blank lines part the entries; values can stand above or below the molecule they belong to.

What was measured:
Format in all cases: biochemical
[1] = target: T1, Nitrile hydratase (PtNHase), alpha subunit (Pseudonocardia thermophila, UniProt Q7SID2+Q7SID3); test: X-ray co-crystal structure
T1 sequence (Q7SID2 2-204): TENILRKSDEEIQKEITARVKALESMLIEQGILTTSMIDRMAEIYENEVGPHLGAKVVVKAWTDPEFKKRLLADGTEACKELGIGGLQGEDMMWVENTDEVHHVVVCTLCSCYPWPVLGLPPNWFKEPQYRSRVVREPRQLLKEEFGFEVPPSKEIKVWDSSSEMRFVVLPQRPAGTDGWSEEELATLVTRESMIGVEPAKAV
T1 sequence (Q7SID3 1-233): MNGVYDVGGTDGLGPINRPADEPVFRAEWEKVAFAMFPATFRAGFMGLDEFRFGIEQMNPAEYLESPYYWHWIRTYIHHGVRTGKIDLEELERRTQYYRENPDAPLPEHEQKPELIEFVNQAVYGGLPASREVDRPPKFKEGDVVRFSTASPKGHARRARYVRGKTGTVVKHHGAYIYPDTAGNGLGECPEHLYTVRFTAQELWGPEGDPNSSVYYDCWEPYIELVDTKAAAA

[2] = target: T1, Nitrile hydratase (PtNHase), alpha subunit; test: X-ray crystal structures
[3] = target: T1, Nitrile hydratase (PtNHase), alpha subunit; test: spectrophotometric hydration kinetics at […] nm

Ki [1]: 0.04 ± 0.01 nM
SMILES: OB(O)c1ccccc1 [PBA, phenylboronic acid]

Ki [2]: 500 ± 100 nM
SMILES: CCCCB(O)O [BuBA, 1-butaneboronic acid]

SMILES: C=CC#N [acrylonitrile]
Km [3]: 800 ± 100 µM
